Values of other authors as cited in patent US20180311201A1, “ORAL PHARMACEUTICAL COMPOSITION COMPRISING OTILONIUM BROMIDE AND SIMETHICONE WITH CERTAIN BULK DENSITY AND IMPROVED DISSOLUTION CHARACTERISTICS” (priority 2015, published 2018).

SMILES: CCCCCCCCOc1ccccc1C(=O)Nc1ccc(C(=O)OCC[N+](C)(CC)CC)cc1.[Br-] [Otilonium bromide, N,N-Diethyl-N-methyl-2-(4-[2-(octyloxy)benzamido]benzoyloxy)ethanaminium bromide]
- Solubility in dimethyl sulfoxide (dimethyl sulfoxide): > 25 mg/mL
- Solubility in ethanol (ethanol): soluble
- Solubility in water (water): 12 mg/mL
